pIC50: −log10 of the molar value.
What was measured:
IL-1b [1] = experiment: Human Whole Blood (HWB) IL-1b Assay; type: cell-based; details: compound 0.5 h, 100 ng/mL LPS 3.5 h, 5 mM ATP 45 min, IL-1b ELISA of supernatant
Description: Assay run as in Tran et al. “Whole blood assay as a model for in vitro evaluation of inflammasome activation and subsequent caspase-mediated interleukin-1 beta release” PLoSONE 14(4): e0214999.https://doi.org/10.1371/journal.pone.0214999. Namely, freshly drawn human whole blood with anti-coagulant was incubated with test compounds at various titration points for 0.5 hrs at 37° C. in 5% CO2. The cells were subsequently primed with 100 ng/mL LPS for 3.5 hours at 37° C. followed by stimulation with 5 mM ATP for an additional 45 minutes. The supernatant was harvested and analyzed for human IL-1b concentration using commercially available ELISA kits.

IL-1b [2] = experiment: Mouse BMDM IL-1b Assay; type: cell-based; details: Macrophage, C57BL6 bone marrow derived macrophages, 200 ng/mL LPS 3 h, compound 30 min, 5 mM ATP 45 min, IL-1b ELISA of supernatant
Description: Mouse bone marrow cells from C57BL6 tibia and femur were culture in complete Isocov's Media supplemented with 20 ng/mL MCSF (BMDM media) at a density of 50 million cells/15 cm Petri dish. Fresh media was changed every 3 days, and bone marrow derived macrophages were collected, washed, and counted on day 7. Cells were seeded into 96 well plates at a density of 5×10^4 cells per well in 100 uL of BMDM media and cultured overnight. The cells were stimulated at 37° C. with 200 ng/mL Ultrapure LPS-B5 for 3 hours before pre-diluted compounds were added. 30 minutes after compound addition, 5 mM ATP was added for the secondary stimulation for 45 minutes. After stimulation, the plates were briefly spun down, and 50 uL of supernatant was harvested from each well. ELISA for mouse IL-1b was performed with 1:10 and 1:100 diluted supernatant using pre-coated kits. IL-1b concentrations were calculated based on pre-titrated standards, and compound inhibition IC50 is generated using the Levenberg Marquardt damped lease-square method.

SMILES	pIC50 (IL-1b [1])	pIC50 (IL-1b [2])
CC(C)c1ccc(F)c(C(C)C)c1NC(=O)NS(=O)(=O)c1cc2c(o1)C1CCN(CC1)C2 [Compound 31, N-((3-fluoro-2,6-diisopropylphenyl)carbamoyl)-4,6,7,8-tetrahydro-5,8-ethanofuro[3,2-c]azepine-2-sulfonamide]	> 6.00	–
CC#Cc1ccc2c(c1NC(=O)NS(=O)(=O)c1cc3c(o1)C1CCN(CC1)C3)CCC2 [Compound 44, N-((5-(prop-1-yn-1-yl)-2,3-dihydro-1H-inden-4-yl)carbamoyl)-4,6,7,8-tetrahydro-5,8-ethanofuro[3,2-c]azepine-2-sulfonamide]	5.00 to 6.00	–
CC(C)c1ccc2c(c1NC(=O)NS(=O)(=O)c1cc3c(o1)C1CCN(CC1)C3)CCC2 [Compound 29, N-((5-isopropyl-2,3-dihydro-1H-inden-4-yl)carbamoyl)-4,6,7,8-tetrahydro-5,8-ethanofuro[3,2-c]azepine-2-sulfonamide]	> 6.00	–
CC(C)c1cc(F)c2c(c1NC(=O)NS(=O)(=O)c1cc3c(o1)C1CCN(CC1)C3)CCC2 [Compound 30, N-((7-fluoro-5-isopropyl-2,3-dihydro-1H-inden-4-yl)carbamoyl)-4,6,7,8-tetrahydro-5,8-ethanofuro[3,2-c]azepine-2-sulfonamide]	> 6.00	–
O=C(Nc1c(C2CCCC2)ccc2c1CCC2)NS(=O)(=O)c1cc2c(o1)C1CCN(CC1)C2 [Compound 39, N-((5-cyclopentyl-2,3-dihydro-1H-inden-4-yl)carbamoyl)-4,6,7,8-tetrahydro-5,8-ethanofuro[3,2-c]azepine-2-sulfonamide]	5.00 to 6.00	–
O=C(Nc1c(C2=CCC2)ccc2c1CCC2)NS(=O)(=O)c1cc2c(o1)C1CCN(CC1)C2 [Compound 43, N-((5-(cyclobut-1-en-1-yl)-2,3-dihydro-1H-inden-4-yl)carbamoyl)-4,6,7,8-tetrahydro-5,8-ethanofuro[3,2-c]azepine-2-sulfonamide]	5.00 to 6.00	–
O=C(Nc1c(C2CCOCC2)ccc2c1CCC2)NS(=O)(=O)c1cc2c(o1)C1CCN(CC1)C2 [Compound 37, N-((5-(tetrahydro-2H-pyran-4-yl)-2,3-dihydro-1H-inden-4-yl)carbamoyl)-4,6,7,8-tetrahydro-5,8-ethanofuro[3,2-c]azepine-2-sulfonamide]	5.00 to 6.00	–
CC(C)c1c(F)cc(F)c(C(C)C)c1NC(=O)NS(=O)(=O)c1cc2c(o1)C1CCN(CC1)C2 [Compound 36, N-((3,5-difluoro-2,6-diisopropylphenyl)carbamoyl)-4,6,7,8-tetrahydro-5,8-ethanofuro[3,2-c]azepine-2-sulfonamide]	5.00 to 6.00	–
O=C(Nc1c2c(cc3c1CCC3)CCC2)NS(=O)(=O)c1cc2c(s1)C1CCN(CC1)C2 [Compound 25]	> 6.00	–
O=C(Nc1c2c(cc3c1CCC3)CCC2)NS(=O)(=O)c1cc2c(o1)C1CCN(CC1)C2 [Compound 13, sodium ((1,2,3,5,6,7-hexahydro-s-indacen-4-yl)carbamoyl)((4,6,7,8-tetrahydro-5,8-ethanofuro[3,2-c]azepin-2-yl)sulfonyl)amide]	> 6.00	> 7.00
O=C(Nc1c(C(F)(F)F)ccc2c1CCC2)NS(=O)(=O)c1cc2c(o1)C1CCN(CC1)C2 [Compound 41, N-((5-(trifluoromethyl)-2,3-dihydro-1H-inden-4-yl)carbamoyl)-4,6,7,8-tetrahydro-5,8-ethanofuro[3,2-c]azepine-2-sulfonamide]	> 6.00	–
CC(C)c1cc(F)cc(C(C)C)c1NC(=O)NS(=O)(=O)c1cc2c(o1)C1CCN(CC1)C2 [Compound 34, N-((4-fluoro-2,6-diisopropylphenyl)carbamoyl)-4,6,7,8-tetrahydro-5,8-ethanofuro[3,2-c]azepine-2-sulfonamide]	5.00 to 6.00	–
CC(C)c1c(F)c(Cl)c(F)c(C(C)C)c1NC(=O)NS(=O)(=O)c1cc2c(o1)C1CCN(CC1)C2 [Compound 35, N-((4-chloro-3,5-difluoro-2,6-diisopropylphenyl)carbamoyl)-4,6,7,8-tetrahydro-5,8-ethanofuro[3,2-c]azepine-2-sulfonamide]	> 6.00	–
O=C(Nc1c(C2CC2)ccc2c1CCC2)NS(=O)(=O)c1cc2c(o1)C1CCN(CC1)C2 [Compound 38, N-((5-cyclopropyl-2,3-dihydro-1H-inden-4-yl)carbamoyl)-4,6,7,8-tetrahydro-5,8-ethanofuro[3,2-c]azepine-2-sulfonamide]	> 6.00	–
COc1cc(-c2ccc3c(c2NC(=O)NS(=O)(=O)c2cc4c(o2)C2CCN(CC2)C4)CCC3)ccn1 [Compound 27, N-((5-(2-methoxypyridin-4-yl)-2,3-dihydro-1H-inden-4-yl)carbamoyl)-4,6,7,8-tetrahydro-5,8-ethanofuro[3,2-c]azepine-2-sulfonamide]	> 6.00	–
O=C(Nc1c2c(c(F)c3c1CCC3)CCC2)NS(=O)(=O)c1cc2c(o1)C1CCN(CC1)C2 [Compound 32, N-((8-fluoro-1,2,3,5,6,7-hexahydro-s-indacen-4-yl)carbamoyl)-4,6,7,8-tetrahydro-5,8-ethanofuro[3,2-c]azepine-2-sulfonamide]	> 6.00	–
O=C(Nc1c(C2CCC2)ccc2c1CCC2)NS(=O)(=O)c1cc2c(o1)C1CCN(CC1)C2 [Compound 42, N-((5-cyclobuty1-2,3-dihydro-1H-inden-4-yl)carbamoyl)-4,6,7,8-tetrahydro-5,8-ethanofuro[3,2-c]azepine-2-sulfonamide]	5.00 to 6.00	–
O=C(Nc1c2c(cc3c1CCO3)CCC2)NS(=O)(=O)c1cc2c(o1)C1CCN(CC1)C2 [Compound 40, N-((3,5,6,7-tetrahydro-2H-indeno[5,6-b]furan-4-yl)carbamoyl)-4,6,7,8-tetrahydro-5,8-ethanofuro[3,2-c]azepine-2-sulfonamide]	> 6.00	–
N#Cc1c2c(c(NC(=O)NS(=O)(=O)c3cc4c(o3)C3CCN(CC3)C4)c3c1CCC3)CCC2 [Compound 33, N-((8-cyano-1,2,3,5,6,7-hexahydro-s-indacen-4-yl)carbamoyl)-4,6,7,8-tetrahydro-5,8-ethanofuro[3,2-c]azepine-2-sulfonamide]	5.00 to 6.00	–
COc1cc(-c2ccc3c(c2NC(=O)NS(=O)(=O)c2cc4c(s2)C2CCN(CC2)C4)CCC3)ccn1 [Compound 28, N-((5-(2-methoxypyridin-4-yl)-2,3-dihydro-1H-inden-4-yl)carbamoyl)-4,6,7,8-tetrahydro-5,8-ethanothieno[3,2-c]azepine-2-sulfonamide]	> 6.00	–
O=C(Nc1c2c(cc3c1CCC3)CCC2)NS(=O)(=O)c1cc2c(s1)C1CCN(CC1)C2 [Compound 26, sodium ((1,2,3,5,6,7-hexahydro-s-indacen-4-yl)carbamoyl)((4,6,7,8-tetrahydro-5,8-ethanothieno[3,2-c]azepin-2-yl)sulfonyl)amide]	–	> 7.00

— US20240101571A1, “NLRP3 MODULATORS” (Zomagen Biosciences Ltd, priority 2020, published 2024)
